The text below walks through data of US20130244875A1, “METHODS AND COMPOSITIONS FOR IMPROVING PLANT HEALTH” (priority 2006, published 2013).

The subject of data set [1] is PR-2, i.e., β-1,3-glucanase. Description: Induction of PR2 (northern blot) in DMO soybean sprayed with dicamba or DCSA. It counts as in vivo. The method, then: A 14 hour minimum photoperiod was provided with supplemental light at about 600 μE (micro-Einsteins) as needed. Trials were established in a randomized block design randomized by rate with 4 to 6 replications of each treatment.
All herbicide applications were made with the track sprayer using a Teejet® 9501E flat fan nozzle (Spraying Systems Co, Wheaton, Ill.) with air pressure set at a minimum of 24 psi (pounds per square inch), or 165 kpa (kilopascals)). The spray nozzle was kept at a height of about 16 inches above the top of plant material for spraying. The spray volume was 10 gallons per acre or 93 liters per hectare. Applications were made when plants had reached V-3 stage.
Events carrying a DMO transgene in their genome were grown and treated with dicamba (Clarity®, BASF) at 1 lb/Acre at Post-V3 stage. Leaf samples were harvested after 0, 3, 8, 24, 48, 72 hrs after treatment (HAT) and frozen for further analysis. In another experiment, DMO-containing plants were sprayed with either dicamba or DCSA at 0.25, 0.5 and 1 lb/Acre rate and tissue samples were collected 24 HAT. RNA was extracted and analyzed by northern blot analysis using PR-2, i.e., β-1,3-glucanase as a probe. PR-2 is a pathogenesis-related protein known to degrade […] and thus provide protection against fungal pathogens (U.S. Pat. No. 5,670,706 and Uknes et al., 1992).

Data set [2] concerns PR5. Description: Induction of PR5 (northern blot) by dicamba or DCSA. The data set is classed as in vivo, soybean. Conditions: probe specific to PR5; procedures as for PR2.
For data set [3], the system named is transgenic soybean. Description: Soybean yield field trials with dicamba treatments. The method, then: The yield enhancing-benefit of DSCA was tested by growing non-transgenic and transgenic plants and applying dicamba to transgenic plants and harvesting the seeds. Non-transgenic and transgenic soybean seeds were planted near the beginning of the growing season in several locations at the time of best possible growth conditions such as soil moisture, temperature, and seeding depth. Across all locations seeds were planted under split-plot design with dicamba treatments as whole-plot effects and events as split-plot effects. The design details were as follows: 6 locations, 2 replications/location, 2 rows/plot, row length 12 feet (+3 ft alley), 9 seeds/foot, 108 seeds/row, 5 events (events 1-4 and a fifth event that was segregating); and 4 treatments as shown below in Table 4. In all, 240 plots were planted at 6 locations (40 per location).
Four non-transgenic border rows were planted all around the trial using a known commercial line such as A3525. Optimum production and management practices known in the art were followed. Maximum pest control and disease control was practiced as needed to prevent confounding effects of dicamba applications. The field was irrigated as needed according to standard practices.
The treatments were: untreated (Untrt); 1 lb/A dicamba at planting followed by 1 lb/A dicamba at V3 growth stage (1×1); 2 lb/A dicamba at planting followed by 2 lb/A dicamba at V3 growth stage (2×2); and 1 lb/A dicamba at planting followed by 1 lb/A dicamba at V3 growth stage followed by 1 lb/A dicamba at R1 stage (1×1×1).

Data set [4] relates to transgenic soybean seeds containing the DMO gene. Conditions: 22° C., 1 low, 2 moderate, 3 high, N=10. The method, then: Transgenic soybean seeds containing the DMO gene were germinated in the presence of 100 or 200 mM sodium chloride (NaCl, salt). […] A diglycoamine salt of dicamba (Clarity) was applied to 113.5 g samples of soy in a water based slurry that contained an agricultural dye. Slurry and dye rates were 8 and 0.5 fl oz/cwt. Aliquots of each dicamba solution were added to seeds contained in a glass jar and agitated. After uniform coverage was attained, seeds were placed on towels and allowed to dry. Non-DMO soybeans were treated at rates of 0, 0.5, 2.5, and 5.0 g ai/100 kg. DMO soybeans were treated with 0, 0.5 and 2.5 g ai/100 kg. Seed germination was scored DAT (2 days after treatment) or 5DAT (days after treatment) at 22° C. The germination rate was scored as 1—low, 2—moderate, 3—high for each treatment, N=10.

The conditions of data set [5]: 24 hours at 30° C., RP-HPLC. The method, then:
Leaf strip and whole plant studies were performed using liquid chromatography assays to determine metabolism of dicamba to DCSA in soybeans. Leaf tissue was removed from wild-type soybean plants and soybean plants transgenic for the DMO gene and were cut into 1 mm strips, the strips then incubated in 25 mM Tris pH 7.5 with radiolabeled dicamba (14C dicamba) for 24 hours at 30° C. After incubation, the leaf tissue was homogenized with a spinning pestle, acidified, solids pelleted by centrifugation and an aliquot of the supernatant analyzed by RP-HPLC equipped with a radiation detector.

For data set [6], the system named is soybean plants transgenic for the DMO gene. Conditions: DMO transgenic soybean sprayed at up to 2.5 lb/A; various times; RP-HPLC. As to the method:
For whole plant assays, soybean plants transgenic for the DMO gene were treated with 14C dicamba by spraying the plants with a solution containing the 14C dicamba at a rate up to 2.5 lb/A. Leaf samples from the treated plants were collected at various times after treatment and analyzed for the DMO metabolites by RP-HPLC. The leaf tissue was homogenized with a spinning pestle, acidified, solids pelleted by centrifugation and an aliquot of the supernatant analyze by RP-HPLC equipped with a radiation detector.

Setting [7] is: 200 mM NaCl, 0.5 g ai/100 kg dicamba seed treatment, 0.0 dicamba 1.
The mark [8] stands for this setting: 200 mM NaCl, 2.5 g ai/100 kg dicamba seed treatment, 0.0 dicamba 1.

SMILES strings stand for the structures. Where two headings read alike, the source gives them in different places.

Take `COc1c(Cl)ccc(Cl)c1C(=O)O` [Dicamba, 3,6-dichloro-2-methoxybenzoic acid]: the “time of peak induction of PR2” value in data set [1] (DMO soybean, dicamba 1 lb/Acre at Post-V3) worked out at 48 h. Further, the “induction of PR2 at various time points” value in data set [1] (DMO soybean, dicamba 1 lb/Acre at Post-V3, 0-72 HAT, no induction in untreated plants) is recorded as “induction of PR2”. In data set [1] (two transgenic soybean lines, 0.25, 0.5 and 1 lb/Acre, 24 hrs after treatment, no induction in untreated or water only), the “induction of PR2 at various rates” value is listed as “induction of PR2”. The “induction of PR5” value in data set [2] was “Induction of PR5”. Further, the “yield compared with unsprayed controls” value in data set [3] (DMO soybean, dicamba 1.5 lb ae/Acre Pre, Post or both, in 4/5 events and 13/15 treatments, 6 locations) is listed as “an increase or equivalent yield to unsprayed controls”. In addition, in data set [3] (three DMO soybean events, dicamba treatments vs untreated, average of 15 locations), the “increase in seed yield” value is “up to 4.6%”. For the same compound, in data set [3] (transgenic soybean, agronomic and efficacy trials), the “maturity of dicamba treated plants compared with untreated plant” value is “no delay in maturity”. Further, the “Germination rating 2DAT” value is listed as 2 in data set [4] (100 mM NaCl, 0.5 g ai/100 kg dicamba seed treatment, 0.0 dicamba 1); 2 in data set [4] (100 mM NaCl, 2.5 g ai/100 kg dicamba seed treatment, 0.0 dicamba 1); 1.5 in data set [4] (setting [7]); 1.5 in data set [4] (setting [8]). The “Germination rating 5DAT” value in data set [4] (100 mM NaCl, 0.5 g ai/100 kg dicamba seed treatment, 0.0 dicamba 2) is listed as 3; in data set [4] (100 mM NaCl, 2.5 g ai/100 kg dicamba seed treatment, 0.0 dicamba 2), 3; in data set [4] (setting [7]), 2; in data set [4] (setting [8]), 1. Further, the “metabolism of radiolabeled dicamba” value in data set [5] (leaf strips of transgenic DMO gene containing soybean) is “metabolized to DCSA and other polar metabolites”; in data set [5] (leaf strips of wild-type soybean), “not in the wild-type soybean plants”. Moreover, in data set [6], the “metabolites of 14C dicamba in leaf samples” value is “DCSA is produced as a metabolite of dicamba”.
